Experimental data published in the supplement of paper PMC8967900.

What was measured:
Experiment in all cases: selective drug sensitivity score (sDSS, relative to normal bone marrow) (sDSS (score)); higher = more potent and effective on the cell line relative to normal bone marrow cells
Details in all cases: 72 h
COG-LL-317 = tested on: COG-LL-317
TANOUE = tested on: TANOUE
MOLT-16 = tested on: MOLT-16
RPMI-8402 = tested on: RPMI-8402
DND-41 = tested on: DND-41
TMD5 = tested on: TMD5
KASUMI-9 = tested on: KASUMI-9
COG-LL-332h = tested on: COG-LL-332h
KASUMI-10 = tested on: KASUMI-10
380 = tested on: 380
HAL-01 = tested on: HAL-01
LC4-1 = tested on: LC4-1
HPB-ALL = tested on: HPB-ALL
MHH-CALL-2 = tested on: MHH-CALL-2
ALL-PO = tested on: ALL-PO
MHH-CALL-3 = tested on: MHH-CALL-3
P30-OHKUBO = tested on: P30-OHKUBO
COG-LL-394h = tested on: COG-LL-394h
COG-LL-402h = tested on: COG-LL-402h
PEER = tested on: PEER
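Note: ALL cell lines in 384-well plates, five doses spanning 10,000-fold, each plate scaled between vehicle and 100 µmol/L benzalkonium chloride controls, sDSS an adapted area-under-curve metric.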

Row | Structure (SMILES) | selective drug sensitivity score (COG-LL-317) | selective drug sensitivity score (TANOUE) | selective drug sensitivity score (MOLT-16) | selective drug sensitivity score (RPMI-8402) | selective drug sensitivity score (DND-41) | selective drug sensitivity score (TMD5) | selective drug sensitivity score (KASUMI-9) | selective drug sensitivity score (COG-LL-332h) | selective drug sensitivity score (KASUMI-10) | selective drug sensitivity score 380 | selective drug sensitivity score (HAL-01) | selective drug sensitivity score (LC4-1) | selective drug sensitivity score (HPB-ALL) | selective drug sensitivity score (MHH-CALL-2) | selective drug sensitivity score (ALL-PO) | selective drug sensitivity score (MHH-CALL-3) | selective drug sensitivity score (P30-OHKUBO) | selective drug sensitivity score (COG-LL-394h) | selective drug sensitivity score (COG-LL-402h) | selective drug sensitivity score (PEER)
1 | C/C(=C\c1csc(C)n1)[C@@H]1C[C@@H]2O[C@]2(C)CCC[C@H](C)[C@H](O)[C@@H](C)C(=O)C(C)(C)[C@@H](O)CC(=O)N1 [Ixabepilone] (top concentration 1000 nM) | 2.98 | -1.92 | 4.68 | 2.78 | 1.28 | 0.28 | 2.58 | 4.08 | 1.58 | 2.08 | 1.78 | 5.08 | 7.08 | 1.88 | 2.28 | -0.42 | 3.78 | 2.18 | 1.58 | 3.28
2 | Nc1cc(COc2c(Cl)cc(C[C@H](N)C(=O)O)cc2Cl)c2oc(-c3ccccc3)nc2c1 [JPH203] (top concentration 5000 nM) | 0 | 0 | 0 | 0.5 | 0 | 2.1 | 2.2 | 0 | 0.2 | 1.2 | 0.4 | 0 | 0 | 0 | 0 | 0 | 2.2 | 0 | 0 | 0
3 | CS(=O)(=O)CCNCc1ccc(-c2ccc3ncnc(Nc4ccc(OCc5cccc(F)c5)c(Cl)c4)c3c2)o1 [Lapatinib] (top concentration 1000 nM) | 0 | 0 | 0 | 0 | 0 | 0 | 0.2 | 0 | 0 | 0 | 2.2 | 0 | 0 | 12.1 | 0 | 0 | 0.3 | 0 | 0 | 0
4 | Oc1ccc2c(c1)CC[C@H](c1ccccc1)[C@@H]2c1ccc(OCCN2CCCC2)cc1 [Lasofoxifene] (top concentration 1000 nM) | -1.28 | -1.08 | 1.12 | -1.28 | -1.28 | -1.28 | -1.28 | -1.28 | -1.28 | -1.28 | -0.08 | -1.28 | 7.52 | -1.28 | -1.28 | -1.28 | -1.28 | -1.28 | -0.18 | -1.28
5 | Cc1ccc(F)c(NC(=O)Nc2ccc(-c3cccc4[nH]nc(N)c34)cc2)c1 [Linifanib] (top concentration 1000 nM) | -1.12 | -1.12 | -1.12 | -1.12 | -0.02 | -1.12 | -1.12 | -1.12 | 6.08 | -1.12 | -1.12 | -1.12 | -1.12 | -1.12 | -1.12 | -1.12 | -1.12 | -1.12 | -1.12 | -1.12
6 | Cc1c(F)cc(C(=O)NC2CC2)cc1-c1ccc(C(=O)NCC(C)(C)C)cn1 [Losmapimod] (top concentration 10000 nM) | -0.18 | 1.32 | 0.12 | -0.18 | -0.18 | -0.18 | 6.92 | -0.18 | -0.18 | -0.18 | -0.08 | 3.32 | 2.32 | -0.18 | -0.18 | -0.18 | 7.82 | -0.18 | 0.42 | -0.08
7 | CNC(=O)c1cccc2cc(Oc3ccnc4cc(OCC5(N)CC5)c(OC)cc34)ccc12 [Lucitanib] (top concentration 10000 nM) | 2.78 | 0.28 | 3.98 | 1.88 | 5.08 | 0.98 | 6.28 | 2.88 | 5.18 | 1.18 | 3.88 | 1.68 | 3.18 | 4.18 | 2.08 | -0.62 | 5.88 | 1.58 | 3.58 | 3.08
8 | O=C1c2c(O)ccc(O)c2C(=O)c2c(NCCNCCO)ccc(NCCNCCO)c21 [Mitoxantrone] (top concentration 1000 nM) | 16.2 | -12.9 | 17 | 6.34 | 2.84 | 4.54 | 11.8 | 11.7 | 12.7 | 16.3 | 5.64 | 6.74 | -3.06 | 7.34 | -0.06 | 14.4 | 7.84 | 13.2 | 15.8 | -6.26
9 | CC1(C)CNc2cc(NC(=O)c3cccnc3NCc3ccncc3)ccc21 [Motesanib] (top concentration 10000 nM) | -0.22 | 1.58 | -0.22 | -0.22 | -0.22 | -0.22 | -0.22 | -0.22 | -0.22 | -0.22 | -0.22 | -0.22 | -0.22 | -0.22 | -0.22 | -0.22 | -0.22 | 0.78 | 1.98 | 0.38
